From patent US20100311580A1, “Active Compound Combinations” (Bayer CropScience AG, priority 2007, published 2010)

Key:
Type in all cases: in vivo
Phaedon cochleariae = Phaedon cochleariae test (spray on cabbage leaves); settings: larvae
Experimental: Solvent: 7 parts by weight of dimethylformamide
Emulsifier: 2 parts by weight of alkylaryl polyglycolether
(§1) To produce a suitable preparation of active compound, 1 part by weight of active compound is mixed with the stated amount of solvent and emulsifier, and the concentrate is diluted with emulsifier-containing water to the desired concentration.
Cabbage leaves (Brassica oleracea) are treated by being sprayed with the preparation of the active compound at the desired concentration and are infested with larvae of the mustard beetle (Phaedon cochleariae) as long as the leaves are still moist.
After the specified period of time, the mortality in % is determined. 100% means that all the beetle larvae have been killed; 0% means that none of the beetle larvae have been killed.

[1] = system: Blumeria graminis f. sp. hordei; test: Blumeria test (barley)/SAR 5d; settings: 1000 ppm, inoculation 5 days after spraying, evaluated 7 days after inoculation
Experimental: Solvent: 50 parts by weight of n,n-dimethylacetamid Emulsifier: 1 part by weight of alkylaryl polyglycol ether
To produce a suitable preparation of active compound, 1 part by weight of active compound or active compound combination is mixed with the stated amounts of solvent and emulsifier, and the concentrate is diluted with water to the desired concentration.
To test for systemic activated resistance, young plants are sprayed with the preparation of active compound or active compound combination at the stated rate of application. After the spray coating has dried on, the plants are placed in a greenhouse at a temperature of approximately 18° C. and a relative atmospheric humidity of approximately 80%.
5 days after spraying, the plants are dusted with spores of Blumeria graminis f. sp. hordei. The plants then remain in a greenhouse at a temperature of approximately 18° C. and a relative atmospheric humidity of approximately 80% to promote the development of mildew pustules.
The test is evaluated 7 days after the inoculation, 1. and 2. leaf separated. 0% means an efficacy with corresponds to that of the control while an efficacy of 100% means that no disease is observed.

Nilaparvata lugens = Nilaparvata lugens test (spray on rice plants); settings: larvae
Experimental: Solvent: 7 parts by weight of dimethylformamide Emulsifier: 2 parts by weight of alkylaryl polyglycolether
as §1
Rice plants (Oryza sativa) are treated by being sprayed with the preparation of the active compound at the desired concentration and are infested with larvae of the Brown plant hopper (Nilaparvata lugens) as long as the leaves are still moist.
After the specified period of time, the mortality in % is determined. 100% means that all the hopper larvae have been killed; 0% means that none of the hopper larvae have been killed.

| SMILES | Efficacy in % after 3 d (mortality) (Phaedon cochleariae; 4 ppm) | Efficacy in % ([1]; 1st leaf) | Efficacy in % ([1]; 2nd leaf) | other results |
| --- | --- | --- | --- | --- |
| CN/C(=N\[N+](=O)[O-])NCc1cnc(Cl)s1 [Clothianidin, clothianidin] | 15% |  |  |  |
| N#Cc1ccccc1NC(=O)c1snc(Cl)c1Cl [Isotianil, 3,4-dichloro-N-(2-cyanophenyl)-5-isothiazolecarboxamide] |  | 44% | 44% | Efficacy in % after 3 d (mortality) (Phaedon cochleariae; 200 ppm): 0%; Efficacy in % after 6 d (mortality) (Phaedon cochleariae; 200 ppm): 0%; Efficacy in % after 3 d (mortality) (Nilaparvata lugens; 200 ppm): 0% |
| O=[N+]([O-])NC1=NCCN1Cc1ccc(Cl)nc1 [Imidacloprid, imidacloprid] |  |  |  | Efficacy in % after 3 d (mortality) (Nilaparvata lugens; 0.8 ppm): 0% |
| N#C/N=C1\SCCN1Cc1ccc(Cl)nc1 [Thiacloprid, thiacloprid] | 5% |  |  |  |
| Cc1cc(C(F)(C(F)(F)F)C(F)(F)F)ccc1NC(=O)c1cccc(I)c1C(=O)NC(C)(C)CS(C)(=O)=O [Flubendiamide, flubendiamide] | 0% | 22% | 22% | Efficacy in % after 3 d (mortality) (Phaedon cochleariae; 0.8 ppm): 0%; Efficacy in % after 6 d (mortality) (Phaedon cochleariae; 4 ppm): 0%; Efficacy in % after 3 d (mortality) (Nilaparvata lugens; 0.16 ppm): 0% |
